# Values quoted from earlier work, collected in patent US6916446B1, “Bioreactor method, apparatus and product thereby” (The United States of America as represented by the …, priority 2002, dated 2005).
# System: Bacillus anthracis (anthrax) and its spores
# Details: cited from earlier work
compound,measurement,setting,value
"CBr [MeBr, methyl bromide]",killing of B. anthracis and its spores,Kolb and Schneiter 1950,kill
same,level at which methyl bromide functions as a microbicide and a pesticide,"Schade and King 1977, tree nuts","about 25,000 ppm"
